The values that follow are results of earlier work, collected in patent publication US9770423B2, “Modulation sAPP, sAAPα and BDNF levels in individuals diagnosed with FXS and ASD” (Indiana University Research and Technology Corp., priority 2012, dated 2017).

One data set relates to males with FXS. The settings on record: cited from earlier work.
The subject of the next data set is adults with FXS. Particulars: single dose, cited from earlier work.
The next data set has as its system subjects with FXS. The settings on record: cited from earlier work.
A further data set relates to fmr1 knockout mouse. The settings on record: literature; cited from earlier work.
Data set [1] deals with cerebellar granule cells from FMR1 knockout mice. Particulars: cultured cerebellar granule cells from FMR1 knockout mice; cited from earlier work.
In data set [2] the test system is persons with FXS and comorbid ASD. Particulars: cited from earlier work.
Data set [3] relates to drinking-in-the-dark mouse model. Particulars: cited from earlier work.

Consider `COC(=O)N1CC[C@@H]2[C@H]1CCC[C@@]2(O)C#Cc1cccc(C)c1` [AFQ056], for which the “response in subset with full FMR1 gene methylation (ABC, CGI-I, Visual Analogue Scale, Repetitive Behavior Scale-Revised)” value in the data set on males with FXS (7 subject subset) is on record as “significant response to AFQ056 compared to placebo”. In the data set with males with FXS (30 males with FXS aged 18 to 35 years), the group treatment effect result is recorded as “not associated with significant group treatment effect”.
As to `CN1CC(=O)NC1=NC(=O)Nc1cccc(Cl)c1` [fenobam], in the data set with adults with FXS (3 of 12 adults with FXS), the “subjects experiencing mild sedation” value was 25%. Besides, the “subjects who experienced clinical benefit” value in the data set with adults with FXS (9 of 12 adults with FXS, reductions in hyperactivity and anxiety) is listed as 75%. Also, in the data set with adults with FXS (12 adults with FXS), the pharmacokinetics result is “variable pharmacokinetics” and the tolerability entry was “good tolerability”.
For the compound `NC[C@H](CC(=O)O)c1ccc(Cl)cc1` (single isomer, unassigned) [STX209], the “ABC-SW and VABS Socialization, post-hoc subset” value in the data set with subjects with FXS (27 subject subset with baseline ABC-SW score of ≧8) is “significant STX209-associated improvement”. Further, in the data set on subjects with FXS (63 subjects aged 6 to 40 years with FXS), the “primary outcome measure, ABC Irritability (ABC-I) subscale” value is given as “not associated with improvement”. Also, in the data set with subjects with FXS (63 subjects with FXS), the “Social Avoidance scale (ABC-SA), post-hoc analysis” value is reported as “significant group-wide improvement”; the “global measures (CGI-I, CGI-S), other ABC subscales, Visual Analog Scale” value is given as “Group-wide effects were also not noted”; the subjects reporting sedation was 8%. Besides, the “effect on phenotype of fmr1 knockout mice” value (“effect on phenotype” for short) in the data set with fmr1 knockout mouse was “correction of aberrant protein synthesis and dendritic spine abnormalities”.
Regarding `CC12CC3CC(C)(C1)CC(N)(C3)C2` [memantine], the “dendritic spine development and synapse formation” value in data set [1] was “correction of dendritic spine development and synapse formation”. In addition, in data set [2] (four of 6 persons with FXS and comorbid ASD), the “subjects with clinical response (CGI-I very much improved or much improved)” value is 67%. Further, the “subjects with treatment limiting irritability” value in data set [2] (of 6 persons) is “Two subjects”.
Take `NCCS(=O)(=O)O` [taurine]: the “effect on phenotype” value with fmr1 knockout mouse is “Improvements in memory acquisition and retention”.
Regarding `Oc1noc2c1CCNC2` [gaboxadol], the “effect on phenotype” value in the data set with fmr1 knockout mouse was “restored neuron excitability deficits in the amygdala, reduced hyperactivity, and reduced PPI deficits”.
As to `CC(=O)[C@H]1CC[C@H]2[C@@H]3CC[C@H]4C[C@H](O)CC[C@]4(C)[C@H]3C(=O)C[C@]12C` [alphaxalone], in the data set with fmr1 knockout mouse, the “effect on phenotype” value is “reductions in anxiety and rescue of audiogenic seizures”.
For `Cc1cccc(C#Cc2ccccc2)n1` [MPEP, 2-methyl-6-(phenylethynyl)-pyridine], the “effect on phenotype” value in the data set with fmr1 knockout mouse was “reverse phenotypic characteristics, including audiogenic seizures, altered pre-pulse inhibition (PPI), and open field hyperactivity”.
For the compound `Cc1nc(C#Cc2cccnc2)cs1` [MTEP, 3-((2-Methyl-4-thiazolyl)ethynyl)pyridine], in data set [3], the alcohol intake result is listed as “reduced alcohol intake”.
